Measurements published in article PMC3958426, “Prolonged Calcitonin Receptor Signaling by Salmon, but Not Human Calcitonin, Reveals Ligand Bias” (PLoS ONE, 2014).

Experiments:
[1] = target: T1, human calcitonin receptor (CT(a)R), U2OS CALCR cells (Homo sapiens, UniProt P30988); test: Ligand association on live U2OS CALCR cells; type: binding; settings: 37°C
T1 construct: host or cells: U2OS (PathHunter U2OS CALCR β-arrestin cell line)
T1 sequence (P30988 25-474): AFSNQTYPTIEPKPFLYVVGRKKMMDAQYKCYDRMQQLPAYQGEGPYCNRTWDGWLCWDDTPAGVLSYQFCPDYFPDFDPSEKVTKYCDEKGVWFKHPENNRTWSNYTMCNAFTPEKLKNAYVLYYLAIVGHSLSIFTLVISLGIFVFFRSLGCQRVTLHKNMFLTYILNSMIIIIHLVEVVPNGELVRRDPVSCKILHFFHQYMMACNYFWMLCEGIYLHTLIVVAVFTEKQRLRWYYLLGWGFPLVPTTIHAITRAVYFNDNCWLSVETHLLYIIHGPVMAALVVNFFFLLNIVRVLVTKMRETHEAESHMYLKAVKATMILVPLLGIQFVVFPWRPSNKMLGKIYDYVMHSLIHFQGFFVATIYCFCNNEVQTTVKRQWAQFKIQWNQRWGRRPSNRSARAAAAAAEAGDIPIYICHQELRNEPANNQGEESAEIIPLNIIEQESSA
Procedure: 15,000 U2OS CALCR cells/well were seeded into 96 well culture plates the day prior to the experiment. All cell based binding kinetics studies were made identical in terms of ‘hot’ and ‘cold’ ligand concentrations and incubation times to match membrane studies. Post incubation sample extraction: The binding mixture and cells were mixed in culture medium in triplicates in 96-well plates and incubated at 37°C. At the end of the incubation, the binding mixture was removed and cells were washed three times in PBS to remove residual unbound ligand. 200 μL 0.5 M NaOH was added to each well and cells were allowed to solubilize for at least 20 min.
(§1) Samples, resuspended pellet or solubilized cell membrane, were transferred to borosilicate tubes and bound radioactivity was measured using a 1470 Wallac Wizard Gamma Counter.

[2] = target: T2, human calcitonin receptor (CT(a)R), U2OS CALCR membranes (Homo sapiens, UniProt P30988); test: Ligand association on isolated U2OS CALCR membranes; type: binding; settings: ^125I ligand 0.25 nM; for association constant KON, membranes: room temperature (∼22°C), 20 mM HEPES, 1 mM CaCl2, 5 mM MgCl2, nonspecific with 250 nM unlabeled sCT, triplicate, mean ± SEM; for time to plateau of specific binding, membranes: ∼22°C
T2 construct: host or cells: U2OS (PathHunter U2OS CALCR β-arrestin cell line)
T2 sequence (P30988 25-474): T1 sequence (P30988 25-474)
Procedure: The binding kinetics of ^125I-(Tyr 22)-sCT and ^125I-(Tyr 12)-hCT were assessed using isolated membranes from Cos-7 CT(a)R or U2OS CALCR. Concentration of radio-labeled ligand was 0.25 nM unless otherwise specified. Membranes were isolated and purified as previously described. Membrane protein content was determined with a NanoDrop 1000 (Thermo Scientific). In general, radio-labeled ligand and membrane were mixed in binding buffer (20 mM HEPES, 1 mM CaCl2, 5 mM MgCl2) with complete protease inhibitor (11836170001, Roche), each condition in triplicate, in 96-well plates and incubation at room temperature (∼22°C) with shaking. Ligand association: The radio-labeled ligand was incubated with the membrane and the membrane-bound radioactivity was determined as described above at specific time points 2½, 5, 10, 20, 40, 80 and 160 min. Nonspecific binding was determined at each time point with co-incubation of 250 nM unlabeled sCT. Ligand dissociation: The radio-labeled ligand and membrane were incubated for one hour to allow ligand-receptor saturation. Dissociation was monitored following the addition of 250 nM unlabeled sCT to prevent rebinding of dissociated radio-ligand. The membrane-bound radioactivity (total binding) was determined at time 0, 1, 2, 4, 6, 24, 48 and 72 h after the initiation of dissociation. Competitive ligand binding: The radio-labeled ligand and membrane were co-incubated with one of seven different concentrations of corresponding unlabeled ligand (1 μM sCT or hCT with a fivefold dilution row) for one hour. Post incubation sample extraction: The binding mixtures were transferred to 1.5 ml Eppendorf tubes and centrifuged at 17,000 g (4°C for 5 min). Membrane pellets were washed with cold binding buffer, resuspended and then re-centrifuged (17,000 g, 4°C for 5 min).
as §1

[3] = tested on: amylin receptor (AMY-R); settings: isolated membranes; cited from earlier work
Description: (§2) The calcitonins (CT) are a group of evolutionary conserved 32 amino acid peptide hormones, which have been isolated from many different species over the last 50 years and divided into several distinct groups based on structure and sequence. The calcitonins bind to the calcitonin receptor (CT(a)R), which belongs to the class B subfamily of G-protein coupled receptors (GPCRs), [3].

[4] = cited from earlier work
Description: as §2

[5] = tested on: CT(a)R; settings: live cells; cited from earlier work
Description: as §2, with “[3]. […] […].” for “[3].”

## ^125I-(Tyr22)-sCT [^125I-sCT]
[1]
  peak binding, live cells, ^125I-hCT vs ^125I-sCT: similar
[1]; ^125I ligand 0.25 nM
  time to plateau of specific binding, live cells: 180 min
[1]; ^125I ligand 0.25 nM, triplicate, mean ± SEM
  association constant KON, live cells: 1.1±0.1×10^8 M^−1min^−1
[2]
  association constant KON, membranes: 3.1±0.5×10^9 M^−1min^−1
  time to plateau of specific binding, membranes: ~8 min

## amylin (KCNTATCATQRLANFLVHSSNNFGAILSSTNVGSNTY; Islet amyloid polypeptide; UniProt P10997 34-70, looked up)
[3]
  dissociation from the amylin receptor: fully reversible

## davalintide
[3]
  dissociation from the amylin receptor: dissociated very slowly
[4]
  duration of biological activity in vivo: prolonged biological activity in vivo

## ^125I-(Tyr12)-hCT [^125I-hCT]
[1]
  peak binding, live cells, ^125I-hCT vs ^125I-sCT: similar
[1]; ^125I ligand 0.25 nM
  specific binding after 180 min compared to 20 min, live cells: < 20%
  time of maximal specific binding, live cells: 20 min
[5]
  reversibility of binding: fully reversible
[2]
  association constant KON, membranes: 2.1±0.3×10^9 M^−1min^−1
  time to plateau of specific binding, membranes: ~8 min
